Where a name gives a salt, the structure may show the parent alone.
Legend:
male dd mice [1] = assay: Muscle relaxant activity: traction test; type: in vivo; conditions: 5 mice per group
Text: (§1) In this example, 5 male dd mice weighing 20±1 g were used as one group. Prior to the experiments, mice were placed on the rod having a diameter of 3 cm and rotating at 5 r.p.m. in the reverse direction of the rotation. […] The drugs were orally administered and the muscle relaxant activity with the passage of time was examined by the following tests.
Traction test: Forefeet of the same mouse were placed on a wire to observe whether it falls or not.
(§2) In each test, the drug was considered to have a muscle relaxant activity when the mouse fell.

male dd mice [2] = assay: Anticonvulsant activity: maximal electroshock convulsion test; type: in vivo; conditions: Mus musculus, po, 1 h, 60 min after administration, read-out: Maximal electroshock convulsion test, inhibition ratio; for responders at 50 mg/kg: 50 mg/kg p.o.; for responders at 75 mg/kg: 75 mg/kg p.o.
Text: Anticonvulsant activity was examined according to maximal electroshock convulsion test.
In this experiment, 10 male dd mice weighing 23±1 g were used as one group. Each drug was orally administered to the animals. Sixty minutes after the administration, an electric current (2000 V, 50 mA) was applied to both eyes of the mouse for 0.2 second. Drug activity was judged according to whether tonic extensor seizures were observed or not.

male Wistar rats = assay: Anti-inflammatory activity: carrageenin edema method; type: in vivo; conditions: Rattus norvegicus, po, 3 hours after carrageenin, read-out: Inhibition ratio (paw swelling, vs control)
Experimental: In this experiment, 5 male Wistar rats weighing 140±10 g were used as one group. Sixty minutes after oral administration of each drug to each animal, 0.1 ml of a 1% carrageenin solution as a phlogistic agent was injected into the plantar surface of the right hind paw of the animal to induce inflammation. The volume of the paw was measured before and 3 hours after the injection of the phlogistic agent. Swelling ratio and inhibition ratio in comparison with control group were calculated.

male dd mice [3] = assay: Analgesic activity: acetic acid writhing; type: in vivo; conditions: Mus musculus, po, 1 h, acetic acid i.p. after 60 min, read-out: Inhibition ratio (writhes, vs control); for inhibition in vivo at 50 mg/kg: 50 mg/kg p.o.
Experimental: In this experiment, 10 male dd mice weighing 20±1 g were used as one group for examination of analgesic activity. Sixty minutes after oral administration of each drug to each animal, 0.2 ml of a 0.7% acetic acid solution was intraperitoneally administered to the animal. Starting 10 minutes after the administration of acetic acid, the number of writhes occurred in 10 minutes was counted. Average number of writhes and inhibition ratio in comparison with control group were calculated.

male dd mice [4] = assay: Muscle relaxant activity: rotating rod test; type: in vivo; conditions: 5 mice per group
Experimental: as §1
Rotating rod test: The same mouse was placed on the rotating rod to observe whether it falls or not within 2 minutes.
as §2

male dd mice [5] = assay: Muscle relaxant activity: slant test; type: in vivo; conditions: 300 mg/kg p.o., 5 mice per group
Experimental: as §1
Slant test: Each mouse was placed on a wire net inclined at an angle of 45° to observe whether it falls or not.
as §2

in vivo = conditions: mouse, po, mice, deaths counted for 7 days
Experimental: In this example, 3-7 male dd mice weighing 20±1 g were used as one group. Each drug was suspended in a 0.3% CMC solution and orally administered. After the administration, number of dead animals was counted for 7 days to determine LD50 value. As the reference drugs, mepirizole and benzydamine hydrochloride were dissolved in water and orally administered. The drugs and the reference drugs were also administered in the same manner as above in Examples 2-5.

## CN(C)CCCOc1nn(Cc2ccccc2)c2ccccc12 [Benzydamine hydrochloride, benzydamine hydrochloride, reference compound]
Male dd mice [1]; 300 mg/kg p.o., 1 hr
  Number of dropped mice, traction test: 5 mice
Male dd mice [1]; 300 mg/kg p.o., 2 hr
  Number of dropped mice, traction test: 1 mice
Male dd mice [1]; 300 mg/kg p.o., 3 hr
  Number of dropped mice, traction test: 0 mice
Male dd mice [2]
  responders at 50 mg/kg: 35%
  responders at 75 mg/kg: 90%
Male dd mice [2]; 100 mg/kg p.o.
  responders at 100 mg/kg: 100%
Male dd mice [2]; 300 mg/kg p.o.
  responders at 300 mg/kg: 100%
Male Wistar rats; 100 mg/kg p.o.
  inhibition in vivo at 100 mg/kg: 14.4%
Male Wistar rats; 200 mg/kg p.o.
  inhibition in vivo at 200 mg/kg: 23.5%
Male dd mice [3]
  inhibition in vivo at 50 mg/kg: 0%
Male dd mice [3]; 200 mg/kg p.o.
  inhibition in vivo at 200 mg/kg: 83.7%
Male dd mice [4]; 300 mg/kg p.o., 1 hr
  Number of dropped mice, rotating rod test: 5 mice
Male dd mice [4]; 300 mg/kg p.o., 2 hr
  Number of dropped mice, rotating rod test: 3 mice
Male dd mice [4]; 300 mg/kg p.o., 3 hr
  Number of dropped mice, rotating rod test: 2 mice
Male dd mice [5]; 1 hr
  Number of dropped mice, slant test: 4 mice
Male dd mice [5]; 2 hr
  Number of dropped mice, slant test: 2 mice
Male dd mice [5]; 3 hr
  Number of dropped mice, slant test: 0 mice
In vivo
  LD50 at 168 h: 500 to 1000 mg/kg

## Cc1c(C(=O)N(C)C)oc2cccc(Cl)c12 [Compound (A), 4-Chloro-N,N,3-trimethyl-benzo[b]furan-2-carboxamide]
Male dd mice [1]; 75 mg/kg p.o., 1 hr
  Number of dropped mice, traction test: 3 mice
Male dd mice [1]; 75 mg/kg p.o., 2 hr
  Number of dropped mice, traction test: 0 mice
Male dd mice [1]; 75 mg/kg p.o., 3 hr
  Number of dropped mice, traction test: 0 mice
Male dd mice [1]; 150 mg/kg p.o., 1 hr
  Number of dropped mice, traction test: 5 mice
Male dd mice [1]; 150 mg/kg p.o., 2 hr
  Number of dropped mice, traction test: 3 mice
Male dd mice [1]; 150 mg/kg p.o., 3 hr
  Number of dropped mice, traction test: 1 mice
Male dd mice [2]; 25 mg/kg p.o.
  responders at 25 mg/kg: 10%
Male dd mice [2]
  responders at 50 mg/kg: 30%
  responders at 75 mg/kg: 80%
Male Wistar rats; 150 mg/kg p.o.
  inhibition in vivo at 150 mg/kg: 33.4%
Male dd mice [3]
  inhibition in vivo at 50 mg/kg: 60.6%
Male dd mice [3]; 150 mg/kg p.o.
  inhibition in vivo at 150 mg/kg: 100%
Male dd mice [4]; 75 mg/kg p.o., 1 hr
  Number of dropped mice, rotating rod test: 3 mice
Male dd mice [4]; 75 mg/kg p.o., 2 hr
  Number of dropped mice, rotating rod test: 2 mice
Male dd mice [4]; 75 mg/kg p.o., 3 hr
  Number of dropped mice, rotating rod test: 1 mice
Male dd mice [4]; 150 mg/kg p.o., 1 hr
  Number of dropped mice, rotating rod test: 5 mice
Male dd mice [4]; 150 mg/kg p.o., 2 hr
  Number of dropped mice, rotating rod test: 5 mice
Male dd mice [4]; 150 mg/kg p.o., 3 hr
  Number of dropped mice, rotating rod test: 2 mice
Male dd mice [5]; 1 hr
  Number of dropped mice, slant test: 4 mice
Male dd mice [5]; 2 hr
  Number of dropped mice, slant test: 3 mice
Male dd mice [5]; 3 hr
  Number of dropped mice, slant test: 3 mice
In vivo
  LD50 at 168 h: > 1000 mg/kg
